Reference: US12371404B2, “Fused bicyclic alkylene linked imidodicarbonimidic diamides, methods for synthesis, and uses in therapy” (NovaTarg, Inc., priority 2016, dated 2025)
Counter-ions that a name gives are not always drawn. Like-named read-outs stand apart in the source and are kept apart here.

Assays:
human OCT1 = target: T1, human OCT1 (Homo sapiens, UniProt O15245); assay: Oxygen consumption rate (OCR) assay, HEK293 cells transfected with OCT1; conditions: HEK293 cells stably transfected with human OCT1; MitoXpress Xtra, 2 hours
T1 sequence (O15245 1-554): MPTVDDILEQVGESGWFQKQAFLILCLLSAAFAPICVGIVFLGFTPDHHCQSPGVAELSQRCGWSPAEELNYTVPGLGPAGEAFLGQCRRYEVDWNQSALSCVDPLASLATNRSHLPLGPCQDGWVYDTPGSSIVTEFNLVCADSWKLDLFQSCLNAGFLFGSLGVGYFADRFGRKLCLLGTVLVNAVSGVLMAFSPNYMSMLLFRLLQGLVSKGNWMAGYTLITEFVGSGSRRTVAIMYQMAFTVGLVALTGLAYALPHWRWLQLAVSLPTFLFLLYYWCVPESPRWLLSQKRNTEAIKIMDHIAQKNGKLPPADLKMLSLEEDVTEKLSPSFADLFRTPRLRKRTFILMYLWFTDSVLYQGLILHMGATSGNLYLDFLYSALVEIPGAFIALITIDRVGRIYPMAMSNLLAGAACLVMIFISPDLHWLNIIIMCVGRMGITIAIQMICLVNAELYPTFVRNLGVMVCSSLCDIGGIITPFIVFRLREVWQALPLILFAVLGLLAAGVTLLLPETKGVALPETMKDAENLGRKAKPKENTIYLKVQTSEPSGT
Source text: (§1) Diabetologia 2011, 54 (12): 3101-3110, each incorporated by reference with regard to such testing. The compounds of the present invention are similarly tested in an oxygen consumption rate (OCR) assay to evaluate the functional activity of test compounds in cells.
(§2) In brief, the assay uses HEK293 cells stably transfected with the human OCT1, OCT2, OCT3, PMAT, or MATE1 transporters to determine a compound's relative transporter selectivity and its effect on the rate of oxygen consumption relative to control (Neo) cells. The MitoXpress Xtra oxygen-sensitive fluorophore is used to monitor oxygen consumption rates in the presence and absence of compound treatments. The analogs were tested at eight (8) different concentrations in triplicate to determine a relative IC50 value.
(§3) A summary description of the protocol is as follows:
HEK293 cells transformed with human organic cation transporters were plated in collagen coated, 96-well black-walled microclear plates (Greiner-Bio 1, #655956) at 60,000 cells per well in growth medium (DMEM (LG), 10% FBS, 400 μg/ml G418). Cells were incubated overnight to allow attachment. The outer columns (1 and 12) are not seeded with cells, as controls. The next day, plating medium was removed and replaced with 150 μL of assay medium (DMEM/F12 (PRF), 5% FBS, antibiotics) containing compound dilutions. A 3-fold serial dilution was prepared in the assay medium and transferred to the empty wells. The outer columns and column 11 received 150 μL of assay medium only. […] Dual read time-resolved fluorescence (BMG FluoStar Galaxy reader) was measured over 2 hours with measurements taken every 2 minutes. […] Background TRF values from A1-D1 were subtracted from all readings. A ratiometric analysis was performed to determine changes in the Lifetime fluorescence signal:Lifetime (μs) [T]=(D2−D1)/ln(W1/W2), where D is delay; W is fluorescence window value at each time point. Lifetime slopes were calculated using each Lifetime measurement over time. IC50 values were determined by plotting lifetime slope values vs. compound concentration.

control (Neo) cells = assay: Oxygen consumption rate (OCR) assay, control (Neo) HEK293 cells; type: cell-based; conditions: Homo sapiens, read-out: Oxygen Consumption Rate (OCR) IC50, Neo
Source text: as §1, §2, §3
(§4) HEK293 cells transformed with human organic cation transporters were plated in collagen coated, 96-well black-walled microclear plates (Greiner-Bio 1, #655956) at 60,000 cells per well in growth medium (DMEM (LG), 10% FBS, 400 μg/ml G418). Cells were incubated overnight to allow attachment. The outer columns (1 and 12) are not seeded with cells, as controls. The next day, plating medium was removed and replaced with 150 μL of assay medium (DMEM/F12 (PRF), 5% FBS, antibiotics) containing compound dilutions. A 3-fold serial dilution was prepared in the assay medium and transferred to the empty wells. The outer columns and column 11 received 150 μL of assay medium only. 10 μL of MitoXpress Xtra reagent was added to each test well, and 100 μL of pre-warmed mineral oil was overlayed in each well to create a seal. Dual read time-resolved fluorescence (BMG FluoStar Galaxy reader) was measured over 2 hours with measurements taken every 2 minutes. Excitation is 340 nm, Emission is 650 nm. For lifetime analysis, two measurements per well were taken: 1) delay of 30 μs, with a window of 30 μs; and 2) delay of 70 μs with a window of 30 μs. Background TRF values from A1-D1 were subtracted from all readings. A ratiometric analysis was performed to determine changes in the Lifetime fluorescence signal:Lifetime (μs) [T]=(D2−D1)/ln(W1/W2), where D is delay; W is fluorescence window value at each time point. Lifetime slopes were calculated using each Lifetime measurement over time. IC50 values were determined by plotting lifetime slope values vs. compound concentration.

human MATE1 = target: T2, human MATE1 (Homo sapiens, UniProt Q96FL8); assay: Oxygen consumption rate (OCR) assay, HEK293 cells transfected with MATE1; conditions: for inhibition at 1000 µM: HEK293, read-out: Oxygen Consumption Rate (OCR), MATE 1, % Inhibition at 1000 μM test concentration
T2 sequence (Q96FL8 1-570): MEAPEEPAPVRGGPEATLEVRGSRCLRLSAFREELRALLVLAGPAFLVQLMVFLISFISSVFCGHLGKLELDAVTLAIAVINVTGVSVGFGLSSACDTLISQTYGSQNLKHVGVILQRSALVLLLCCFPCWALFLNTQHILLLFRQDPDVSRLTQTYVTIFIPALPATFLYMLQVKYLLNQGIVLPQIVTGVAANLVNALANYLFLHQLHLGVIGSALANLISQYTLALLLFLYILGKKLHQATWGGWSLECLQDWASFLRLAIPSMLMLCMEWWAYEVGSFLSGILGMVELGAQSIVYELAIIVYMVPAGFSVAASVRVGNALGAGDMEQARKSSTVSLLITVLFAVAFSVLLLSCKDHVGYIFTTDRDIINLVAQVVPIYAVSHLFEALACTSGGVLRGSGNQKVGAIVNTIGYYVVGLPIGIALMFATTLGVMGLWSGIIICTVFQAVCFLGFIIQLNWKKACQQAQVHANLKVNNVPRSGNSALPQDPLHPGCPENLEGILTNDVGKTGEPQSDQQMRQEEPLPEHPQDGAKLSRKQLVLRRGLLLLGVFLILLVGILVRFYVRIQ
Source text: The compounds of the present invention are similarly tested in an oxygen consumption rate (OCR) assay to evaluate the functional activity of test compounds in cells.
as §2, §3
as §4, with “Cells” for “HEK293 cells transformed with human organic cation transporters were plated in collagen coated, 96-well black-walled microclear plates (Greiner-Bio 1, #655956) at 60,000 cells per well in growth medium (DMEM (LG), 10% FBS, 400 μg/ml G418). Cells”

human PMAT = target: T3, human PMAT (Homo sapiens, UniProt Q7RTT9); assay: Oxygen consumption rate (OCR) assay, HEK293 cells transfected with PMAT; type: cell-based; conditions: for inhibition at 10 µM: HEK293 cells with human PMAT
T3 construct: expressed in transfected cells; host or cells: HEK293
T3 sequence (Q7RTT9 1-530): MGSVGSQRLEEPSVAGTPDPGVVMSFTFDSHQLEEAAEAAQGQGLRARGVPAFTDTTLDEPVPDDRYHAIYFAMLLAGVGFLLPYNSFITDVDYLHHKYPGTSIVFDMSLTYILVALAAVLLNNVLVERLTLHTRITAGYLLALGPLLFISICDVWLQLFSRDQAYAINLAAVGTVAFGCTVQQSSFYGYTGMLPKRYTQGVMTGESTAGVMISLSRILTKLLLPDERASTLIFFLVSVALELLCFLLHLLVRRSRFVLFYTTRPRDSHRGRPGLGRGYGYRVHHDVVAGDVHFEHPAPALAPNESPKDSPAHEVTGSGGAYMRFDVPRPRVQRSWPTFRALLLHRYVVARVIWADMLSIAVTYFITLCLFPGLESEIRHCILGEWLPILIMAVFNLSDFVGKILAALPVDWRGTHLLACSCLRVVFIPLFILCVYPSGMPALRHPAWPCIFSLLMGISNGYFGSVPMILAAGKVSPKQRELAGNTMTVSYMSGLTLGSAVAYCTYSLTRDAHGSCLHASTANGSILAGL
Source text: as §1, §2, §3, §4

[1] = control (Neo) HEK293 cells, MitoXpress Xtra, 2 hours

In the case of `Cl.N=C(N)NC(=N)NCCc1c[nH]c2ccc(F)cc12` [Ex 2, 1-[2-(5-fluoro-1H-indol-3-yl)ethyl]imidodicarbonimide diamide hydrochloride], the “Oxygen Consumption Rate (OCR) IC50, OCT 1” value (from here on “Oxygen Consumption Rate”) (human OCT1) is reported as over 1000 µM, the IC50 (control (Neo) cells; HEK293, 2 h) is reported as over 1000 µM and the IC50 (human MATE1) is reported as over 1000 µM. For the same molecule, the IC50 (human PMAT) was 5 µM.

With `N=C(N)NC(=N)NCCc1c[nH]c2cccc(Cl)c12` [Ex 34, 1-[2-(4-chloro-1H-indol-3-yl)ethyl]imidodicarbonimide diamide, trifluoroacetic acid salt] the “Oxygen Consumption Rate” value (human OCT1) was 3 µM, the IC50 (control (Neo) cells; HEK293, 2 h) was 184 µM and the IC50 (human MATE1) was 19 µM. The IC50 (human PMAT) was 2 µM.

In the case of `Cn1cc(CCNC(=N)NC(=N)N)c2cc(F)ccc21` [Ex 4, 1-[2-(5-fluoro-1-methyl-1H-indol-3-yl)ethyl]imidodicarbonimide diamide], the IC50 (control (Neo) cells; [1]) is reported as 678 µM, the IC50 (human MATE1) is reported as 1570 µM and the inhibition at 10 µM (human PMAT) is reported as 41%.

`N=C(N)NC(=N)NCCc1c[nH]c2c(F)c(F)c(F)cc12` [Ex 41, 1-[2-(5,6,7-trifluoro-1H-indol-3-yl)ethyl]imidodicarbonimide diamide, trifluoroacetic acid salt] showed an IC50 (control (Neo) cells; HEK293, 2 h) of 460 µM, an IC50 (human MATE1) of 675 µM and an IC50 (human PMAT) of 6 µM.

For `N=C(N)NC(=N)NCCc1c[nH]c2ccc(Cl)cc12` [Ex 9, 1-[2-(5-chloro-1H-indol-3-yl)ethyl]imidodicarbonimide diamide, trifluoroacetic acid salt], the IC50 (control (Neo) cells; [1]) was 70 µM, the IC50 (human MATE1) was 171 µM and the inhibition at 10 µM (human PMAT) was 53%.

In the case of `Cc1cccc2c(CCNC(=N)NC(=N)N)c[nH]c12` [Ex 59, 1-[2-(7-methyl-1H-indol-3-yl)ethyl]imidodicarbonimide diamide, trifluoroacetic acid salt], the IC50 (control (Neo) cells; [1]) is reported as 1290 µM, the IC50 (human MATE1) is reported as 112 µM and the inhibition at 10 µM (human PMAT) is reported as 47%.

For `CC(Cc1cn(C)c2ccc(F)cc12)NC(=N)NC(=N)N` (stereo not drawn) [Ex 6, 1-[1-(5-fluoro-1-methyl-1H-indol-3-yl)propan-2-yl]imidodicarbonimide Diamide], the IC50 (control (Neo) cells; [1]) was over 10000 µM, the inhibition at 1000 µM (human MATE1) was 18% and the inhibition at 10 µM (human PMAT) was 8%.

`CN(C)C(=N)NC(=N)NCCc1c[nH]c2cc(F)ccc12` [Ex 23, 3-(2-(6-fluoro-1H-indol-3-yl)ethyl)-1,1-dimethyl imidodicarbonimide diamide hydrochloride] gave an IC50 (control (Neo) cells; [1]) of over 3000 µM, an IC50 (human MATE1) of over 10000 µM and an inhibition at 10 µM (human PMAT) of 4%.

For `CN(C)C(=N)NC(=N)NCCc1c[nH]c2ccc(C(F)(F)F)cc12` [Ex 32, 3-(2-(5-trifluoromethyl-1H-indol-3-yl)ethyl)-1,1-dimethyl imidodicarbonimide diamide hydrochloride], the IC50 (control (Neo) cells; [1]) was 397 µM, the IC50 (human MATE1) was 681 µM and the inhibition at 10 µM (human PMAT) was 10%.

Work on `N=C(N)NC(=N)NCCc1c[nH]c2ccc([N+](=O)[O-])cc12` [Ex 18, 1-[2-(5-nitro-1H-indol-3-yl)ethyl]imidodicarbonimide diamide, trifluoroacetic acid salt] yielded an IC50 (control (Neo) cells; [1]) of 1410 µM, an inhibition at 1000 µM (human MATE1) of -26% and an inhibition at 10 µM (human PMAT) of 27%.

In the case of `N=C(N)NC(=N)NCCc1c[nH]c2cc(Cl)c(F)cc12` [Ex 48, 1-[2-(6-chloro-5-fluoro-1H-indol-3-yl)ethyl]imidodicarbonimide diamide, trifluoroacetic acid salt], the IC50 (control (Neo) cells; [1]) is reported as 210 µM, the IC50 (human MATE1) is reported as 101 µM and the inhibition at 10 µM (human PMAT) is reported as 61%.

In the case of `N=C(N)NC(=N)NCCc1c[nH]c2ccc(OC(F)(F)F)cc12` [Ex 57, 1-[2-(5-trifluoromethoxy-1H-indol-3-yl)ethyl]imidodicarbonimide diamide, trifluoroacetic acid salt], the IC50 (control (Neo) cells; [1]) is reported as 255 µM, the IC50 (human MATE1) is reported as 631 µM and the inhibition at 10 µM (human PMAT) is reported as 6%.

`Cc1[nH]c2cc(F)ccc2c1CCNC(=N)NC(=N)N` [Ex 31, 1-[2-(6-fluoro-2-methyl-1H-indol-3-yl)ethyl]imidodicarbonimide diamide, trifluoroacetic acid salt] gave an IC50 (control (Neo) cells; [1]) of 4870 µM, an IC50 (human MATE1) of 13400 µM and an inhibition at 10 µM (human PMAT) of 35%.

`N=C(N)NC(=N)NCCc1c[nH]c2ccccc12` [Ex 17, 1-[2-(1H-indol-3-yl)ethyl]imidodicarbonimide diamide hydrochloride] showed an IC50 (control (Neo) cells; [1]) of over 5000 µM, an IC50 (human MATE1) of 4840 µM and an inhibition at 10 µM (human PMAT) of 54%.

`N=C(N)NC(=N)NCCc1c[nH]c2cccnc12` [Ex 21, 1-(2-(1H-pyrrolo[3,2-b]pyridin-3-yl)ethyl)imidodicarbonimide diamide acetate] was tested, and the IC50 (control (Neo) cells; [1]) was over 3000 µM, the IC50 (human MATE1) was 1540 µM and the inhibition at 10 µM (human PMAT) was 27%.

With `Cc1[nH]c2ccccc2c1CCNC(=N)NC(=N)N` [Ex 1, 1-[2-(2-methyl-1H-indol-3-yl)ethyl]imidodicarbonimide diamide] the “Oxygen Consumption Rate” value (human OCT1) was 1267 µM, the IC50 (control (Neo) cells; HEK293, 2 h) was over 5000 µM and the inhibition at 1000 µM (human MATE1) was 30%. The IC50 (human PMAT) was 3 µM.

With `CC(C)(CNC(=N)NC(=N)N)c1c[nH]c2ccccc12` [Ex 8] the IC50 (control (Neo) cells; [1]) was over 1000 µM, the inhibition at 1000 µM (human MATE1) was 31% and the inhibition at 10 µM (human PMAT) was 20%.
